Test results: patent publication US20080045537A1, “Chemical Compounds” (priority 2004, published 2008)

Tested on: HIV-1 IIIB (T-tropic, CXCR4 utilizing)
Assay: HOS HIV-1 infectivity assay
Format: cell-based
Conditions: Human immunodeficiency virus 1, IIIB; as determined by the infectivity assay; strain not stated in Table 2; read-out: Activity Level
Procedure, shortened: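 HOS cells expressing hCXCR4/hCCR5/hCD4 and an HIV-LTR-luciferase reporter, in DMEM with 2% FCS, were pre-treated with compound for 1 h, then infected with HIV-1 IIIB (~2 million RLU/well) for 96 h at 37° C. Infection was read by Steady-Glo luciferase; cytotoxicity in uninfected cultures by CellTiter-Glo.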

Row | Compound | IC50 [nM]
1 | CN1C[C@H]2C[C@H](C1)CN(c1cccc3nc(CN(C)[C@H]4CCCc5cccnc54)[nH]c13)C2 [Example 144, (8S)—N-methyl-N-({4-[(1R,5R)-7-methyl-3,7-diazabicyclo[3.3.1]non-3-yl]-1H-benzimidazol-2-yl}methyl)-5,6,7,8-tetrahydro-8-quinolinamine] | < 100
2 | CN1CCN(c2cccc3nc(CN(C4CC4)C4CCCc5cccnc54)[nH]c23)CC1 (stereo not drawn) [Example 145, N-Cyclopropyl-N-{[4-(4-methyl-1-piperazinyl)-1H-benzimidazol-2-yl]methyl}-5,6,7,8-tetrahydro-8-quinolinamine] | < 100
3 | COc1ccc([C@H](C)N(Cc2nc3cccc(N4CCN(C)CC4)c3[nH]2)[C@H]2CCCc3cccnc32)cc1 [Example 146, (8S)—N-{(1S)-1-[4-(methyloxy)phenyl]ethyl}-N-{[4-(4-methyl-1-piperazinyl)-1H-benzimidazol-2-yl]methyl}-5,6,7,8-tetrahydro-8-quinolinamine] | < 100
4 | CN1CCN(c2cccc3nc(CN(CCOCc4ccccc4)[C@H]4CCCc5cccnc54)[nH]c23)CC1 [Example 147] | < 100
5 | CN1CCN(c2cccc3nc(CN(CCO)[C@H]4CCCc5cccnc54)[nH]c23)CC1 [Example 148, 2-{{[4-(4-Methyl-1-piperazinyl)-1H-benzimidazol-2-yl]methyl}[(8S)-5,6,7,8-tetrahydro-8-quinolinyl]amino}ethanol] | < 100
6 | CN1CCN(c2cccc3nc(CN(CCCO)[C@H]4CCCc5cccnc54)[nH]c23)CC1 [Example 149, 3-{{[4-(4-Methyl-1-piperazinyl)-1H-benzimidazol-2-yl]methyl}[(8S)-5,6,7,8-tetrahydro-8-quinolinyl]amino}-1-propanol] | < 100
7 | CN1CCN(c2cccc3nc(CN(Cc4ccccc4)[C@H]4CCCc5cccnc54)[nH]c23)CC1 [Example 150, (8S)—N-{[4-(4-methyl-1-piperazinyl)-1H-benzimidazol-2-yl]methyl}-N-(phenylmethyl)-5,6,7,8-tetrahydro-8-quinolinamine] | < 100
8 | CN1CCN(c2cccc3c2nc(CN(C)C2CCCc4cccnc42)n3C)CC1 (stereo not drawn) [Example 152, N-Methyl-N-{[1-methyl-4-(4-methyl-1-piperazinyl)-1H-benzimidazol-2-yl]methyl}-5,6,7,8-tetrahydro-8-quinolinamine] | 100 to 500
9 | CN1CCN(c2cccc3nc(CN(C)C4CCCc5cccnc54)n(C)c23)CC1 (stereo not drawn) [Example 153, N-Methyl-N-{[1-methyl-7-(4-methyl-1-piperazinyl)-1H-benzimidazol-2-yl]methyl}-5,6,7,8-tetrahydro-8-quinolinamine] | < 100
10 | CCN(Cc1nc2cccc(N3CCN(C)CC3)c2n1C)C1CCCc2cccnc21 (stereo not drawn) [Example 154, N-Ethyl-N-{[1-methyl-7-(4-methyl-1-piperazinyl)-1H-benzimidazol-2-yl]methyl}-5,6,7,8-tetrahydro-8-quinolinamine] | < 100
11 | CCCN(Cc1nc2cccc(N3CCN(C)CC3)c2n1C)C1CCCc2cccnc21 (stereo not drawn) [Example 155, N-{[1-Methyl-7-(4-methyl-1-piperazinyl)-1H-benzimidazol-2-yl]methyl}-N-propyl-5,6,7,8-tetrahydro-8-quinolinamine] | < 100
12 | CN1CCN(c2cccc3nc(CN(CC4CC4)C4CCCc5cccnc54)n(C)c23)CC1 (stereo not drawn) [Example 156, N-(Cyclopropylmethyl)-N-{[1-methyl-7-(4-methyl-1-piperazinyl)-1H-benzimidazol-2-yl]methyl}-5,6,7,8-tetrahydro-8-quinolinamine] | < 100
13 | CN(Cc1nc2cccc(N3CCNCC3)c2n1C)[C@H]1CCCc2cccnc21 [Example 159, (8S)—N-methyl-N-{[1-methyl-7-(1-piperazinyl)-1H-benzimidazol-2-yl]methyl}-5,6,7,8-tetrahydro-8-quinolinamine] | < 100
14 | CN1CCN(c2cccc3nc(CN(C)[C@H]4CCCc5cccnc54)n(C)c23)CC1 [Example 160, (8S)—N-Methyl-N-{[1-methyl-7-(4-methyl-1-piperazinyl)-1H-benzimidazol-2-yl]methyl}-5,6,7,8-tetrahydro-8-quinolinamine] | < 100
15 | CN1CCN(c2cccc3nc(CN(C)[C@@H]4CCCc5cccnc54)n(C)c23)CC1 [Example 161, (8R)—N-Methyl-N-{[1-methyl-7-(4-methyl-1-piperazinyl)-1H-benzimidazol-2-yl]methyl}-5,6,7,8-tetrahydro-8-quinolinamine] | < 100
16 | CCn1c(CN(C)[C@H]2CCCc3cccnc32)nc2cccc(N3CCN(C)CC3)c21 [Example 164, (8S)—N-{[1-ethyl-7-(4-methyl-1-piperazinyl)-1H-benzimidazol-2-yl]methyl}-N-methyl-5,6,7,8-tetrahydro-8-quinolinamine] | < 100
17 | CCn1c(CN(Cc2ccccc2)[C@H]2CCCc3cccnc32)nc2cccc(N3CCN(C)CC3)c21 [Example 165, (8S)—N-{[1-Ethyl-7-(4-methyl-1-piperazinyl)-1H-benzimidazol-2-yl]methyl}-N-(Phenylmethyl)-5,6,7,8-tetrahydro-8-quinolinamine] | < 100
18 | CCN(Cc1nc2cccc(N3CCN(C)CC3)c2n1CC)[C@H]1CCCc2cccnc21 [Example 166, (8S)—N-Ethyl-N-{[1-ethyl-7-(4-methyl-1-piperazinyl)-1H-benzimidazol-2-yl]methyl}-5,6,7,8-tetrahydro-8-quinolinamine] | < 100
19 | CCN(Cc1nc2cccc(N3CCN(C)CC3)c2n1C)[C@H]1CCCc2cccnc21 [Example 167, (8S)—N-Ethyl-N-{[1-methyl-7-(4-methyl-1-piperazinyl)-1H-benzimidazol-2-yl]methyl}-5,6,7,8-tetrahydro-8-quinolinamine] | < 100
20 | CCCN(Cc1nc2cccc(N3CCN(C)CC3)c2n1C)[C@H]1CCCc2cccnc21 [Example 168, (8S)—N-{[1-Methyl-7-(4-methyl-1-piperazinyl)-1H-benzimidazol-2-yl]methyl}-N-propyl-5,6,7,8-tetrahydro-8-quinolinamine] | < 100
21 | CN1CCN(c2cccc3nc(CN(Cc4ccccc4)[C@H]4CCCc5cccnc54)n(C)c23)CC1 [Example 169, (8S)—N-{[1-Methyl-7-(4-methyl-1-piperazinyl)-1H-benzimidazol-2-yl]methyl}-N-(Phenylmethyl)-5,6,7,8-tetrahydro-8-quinolinamine] | < 100
22 | CN1CCN(c2c(Cl)ccc3nc(CN(C)C4CCCc5cccnc54)[nH]c23)CC1 (stereo not drawn) [Example 170, N-{[5-Chloro-4-(4-methyl-1-piperazinyl)-1H-benzimidazol-2-yl]methyl}-N-methyl-5,6,7,8-tetrahydro-8-quinolinamine] | < 100
23 | CN1CCN(c2ccc(Cl)c3nc(CN(C)C4CCCc5cccnc54)[nH]c23)CC1 (stereo not drawn) [Example 171, N-{[4-Chloro-7-(4-methyl-1-piperazinyl)-1H-benzimidazol-2-yl]methyl}-N-methyl-5,6,7,8-tetrahydro-8-quinolinamine] | < 100
24 | C[C@H](c1nc2c(N3CCN(C)CC3)cccc2[nH]1)N(C)C1CCCc2cccnc21 (stereo partly drawn) [Example 172, N-Methyl-N-{(1R)-1-[4-(4-methyl-1-piperazinyl)-1H-benzimidazol-2-yl]ethyl}-5,6,7,8-tetrahydro-8-quinolinamine] | < 100
